Experimental data as given in patent US20230265151A1, “GIP/GLP1 CO-AGONIST COMPOUNDS” (priority 2020, published 2023).
Like-named read-outs stand apart in the source and are kept apart here.

Legend:
[1] = molecular target: T1, human GLP-1 receptor (hGLP-1R) (Homo sapiens, UniProt P43220); assay: [125I]-GLP-1 binding, SPA with membranes of HEK293 cells expressing hGLP-1R; details: human GLP-1R; geometric mean (SEM, n); read-out: Binding Affinity Ki, nM (SEM, n) hGLP-1R
T1 construct: expressed in transfected cells; crude membranes

[2] = molecular target: T2, hGIPR (Homo sapiens, UniProt P48546); assay: Functional cAMP formation (HTRF) in HEK-293 clonal cells expressing hGIPR, 0.1% bovine casein, without or with 1.0% human serum albumin; format: cell-based; details: for EC50: geometric mean, read-out: hGIPR EC50, nM (SEM, n); for Emax: read-out: hGIPR Emax, % ± SEM
T2 construct: expressed in transfected cells
T2 sequence (P48546 22-466): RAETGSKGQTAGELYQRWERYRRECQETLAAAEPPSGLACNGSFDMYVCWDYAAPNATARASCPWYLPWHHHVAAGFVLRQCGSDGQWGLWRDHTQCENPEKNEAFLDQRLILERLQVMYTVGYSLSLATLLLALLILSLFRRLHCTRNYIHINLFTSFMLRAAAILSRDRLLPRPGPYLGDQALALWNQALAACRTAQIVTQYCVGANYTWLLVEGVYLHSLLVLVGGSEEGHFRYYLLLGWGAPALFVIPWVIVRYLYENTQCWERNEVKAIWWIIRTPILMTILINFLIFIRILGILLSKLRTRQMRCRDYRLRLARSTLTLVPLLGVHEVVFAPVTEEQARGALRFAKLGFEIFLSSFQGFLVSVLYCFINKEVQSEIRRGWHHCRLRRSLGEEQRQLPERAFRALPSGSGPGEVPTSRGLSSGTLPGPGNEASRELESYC
Summary of the method: (§1)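 Cells were stimulated with peptide for 30 min at 37° C, then intracellular cAMP was measured by competitive HTRF (665/620 nm ratio) and converted to nM using a cAMP standard curve. Relative EC50 and Emax came from four-parameter logistic fits of percent maximal response against peptide concentration.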

[3] = molecular target: T3, hGCGR (Homo sapiens, UniProt P47871); assay: Functional cAMP formation (HTRF) in HEK-293 clonal cells expressing hGCGR, 0.1% bovine casein, without or with 1.0% human serum albumin; format: cell-based; details: geometric mean, read-out: hGCGR EC50, nM (SEM, n)
T3 construct: expressed in transfected cells
Summary of the method: as §1

[4] = molecular target: hGLP-1R (Homo sapiens, UniProt P43220); assay: Functional cAMP formation (HTRF) in HEK-293 clonal cells expressing hGLP-1R, 0.1% bovine casein, without or with 1.0% human serum albumin; format: cell-based; design: expressed in transfected cells; details: for EC50: geometric mean, read-out: hGLP-1R EC50, nM (SEM, n)
Summary of the method: as §1

[5] = 0.1% bovine casein and 1.0% human serum albumin, 37° C.
[6] = HEK293, 0.1% bovine casein and 1.0% human serum albumin, 37° C., percent of maximal response to GIP(1-42)NH2
[7] = HEK293, percent of maximal response to GIP(1-42)NH2, 37° C., 0.1% bovine casein, arithmetic mean
[8] = cAMP, incubated at 37° C., 0.1% bovine casein (no human serum albumin)

T3 sequence (P47871 26-477): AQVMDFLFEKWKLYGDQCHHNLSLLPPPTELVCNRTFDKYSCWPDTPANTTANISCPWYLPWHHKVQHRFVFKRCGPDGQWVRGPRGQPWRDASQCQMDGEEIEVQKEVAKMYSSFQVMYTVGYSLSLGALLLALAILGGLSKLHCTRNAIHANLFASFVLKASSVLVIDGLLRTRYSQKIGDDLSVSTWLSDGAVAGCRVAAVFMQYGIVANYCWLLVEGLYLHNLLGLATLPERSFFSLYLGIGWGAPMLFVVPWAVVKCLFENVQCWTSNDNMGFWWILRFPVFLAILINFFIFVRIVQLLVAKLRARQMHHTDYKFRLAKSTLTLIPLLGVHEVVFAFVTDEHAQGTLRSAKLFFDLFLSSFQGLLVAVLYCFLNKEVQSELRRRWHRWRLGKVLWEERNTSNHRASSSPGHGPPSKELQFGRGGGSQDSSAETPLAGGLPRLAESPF
Chain of hGLP-1R (P43220 24-463): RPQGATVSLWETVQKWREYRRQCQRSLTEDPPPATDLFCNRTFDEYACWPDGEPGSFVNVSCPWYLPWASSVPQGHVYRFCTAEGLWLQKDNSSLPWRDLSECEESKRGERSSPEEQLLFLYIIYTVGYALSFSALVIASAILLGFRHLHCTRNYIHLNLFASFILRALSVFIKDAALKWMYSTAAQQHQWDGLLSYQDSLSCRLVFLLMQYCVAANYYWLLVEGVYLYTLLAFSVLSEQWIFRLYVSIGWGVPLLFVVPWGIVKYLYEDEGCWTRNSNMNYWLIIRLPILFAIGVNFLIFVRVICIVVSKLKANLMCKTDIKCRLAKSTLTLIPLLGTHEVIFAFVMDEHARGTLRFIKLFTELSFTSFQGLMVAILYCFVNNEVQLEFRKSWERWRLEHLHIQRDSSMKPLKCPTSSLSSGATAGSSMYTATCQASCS
T1 sequence (P43220 24-463): as above

CC[C@H](C)[C@H](NC(=O)[C@H](CCCN)NC(=O)[C@H](CC(=O)O)NC(=O)[C@H](CC(C)C)NC(=O)[C@](C)(CC(C)C)NC(=O)[C@@H](NC(=O)[C@H](CO)NC(=O)[C@H](Cc1ccncc1)NC(=O)[C@H](CC(=O)O)NC(=O)[C@H](CO)NC(=O)[C@@H](NC(=O)[C@](C)(Cc1ccccc1F)NC(=O)[C@@H](NC(=O)CNC(=O)[C@H](CCC(=O)O)NC(=O)C(C)(C)NC(=O)[C@@H](N)Cc1ccc(O)cc1)[C@@H](C)O)[C@@H](C)O)[C@@H](C)CC)C(=O)N[C@@H](C)C(=O)N[C@@H](CCC(N)=O)C(=O)NC(C)(C)C(=O)N[C@@H](CCCCNC(=O)COCCOCCNC(=O)COCCOCCNC(=O)CC[C@H](NC(=O)CCCCCCCCCCCCC(=O)O)C(=O)O)C(=O)N[C@@H](Cc1ccccc1)C(=O)N[C@H](C(=O)N[C@H](CCC(=O)O)C(=O)N[C@@](C)(Cc1ccc(O)cc1)C(=O)N[C@@H](CC(C)C)C(=O)N[C@H](C(=O)N[C@@H](CCCCNC(=O)COCCOCCNC(=O)COCCOCCNC(=O)CC[C@H](NC(=O)CCCCCCCCCCCCC(=O)O)C(=O)O)C(=O)NCC(=O)NCC(=O)N1CCC[C@H]1C(=O)N[C@@H](CO)C(=O)N[C@@H](CO)C(=O)NCC(=O)N[C@@H](C)C(=O)N1CCC[C@H]1C(=O)N1CCC[C@H]1C(=O)N1CCC[C@H]1C(=O)N[C@@H](CO)C(N)=O)[C@@H](C)CC)[C@@H](C)CC [Example 73]
Ki [1]: 3.38 nM | EC50 [2, 5]: 2.16 nM | Emax [2, 6]: 80.2% | Emax [2, 7]: 97.1 ± 2.7% | EC50 [2, 8]: 0.0207 nM | EC50 [3, 5]: > 9950 nM | EC50 [3, 8]: > 9950 nM | EC50 [4, 5]: 56.2 nM | Emax ([4]; HEK293, 0.1% bovine casein and 1.0% human serum albumin, 37° C., percent of maximal response to GLP-1(7-36)NH2, read-out: hGLP-1R Emax, % ± SEM): 109% | EC50 [4, 8]: 0.437 nM

CC[C@H](C)[C@H](NC(=O)[C@H](CC(C)C)NC(=O)[C@](C)(Cc1ccc(O)cc1)NC(=O)[C@@H](CCC(=O)O)NC(=O)[C@@H](NC(=O)[C@H](Cc1ccccc1)NC(=O)[C@H](CCC(=O)O)NC(=O)C(C)(C)NC(=O)[C@H](CCC(N)=O)NC(=O)[C@H](C)NC(=O)[C@H](CCCCNC(=O)COCCOCCNC(=O)COCCOCCNC(=O)[C@@H](N)CCCCNC(=O)CCCCCCCCCCCCC(=O)O)NC(=O)[C@H](CCCN)NC(=O)[C@H](CC(=O)O)NC(=O)[C@H](CC(C)C)NC(=O)[C@](C)(CC(C)C)NC(=O)[C@@H](NC(=O)[C@H](CO)NC(=O)[C@H](Cc1ccncc1)NC(=O)[C@H](CC(=O)O)NC(=O)[C@H](CO)NC(=O)[C@@H](NC(=O)[C@](C)(Cc1ccccc1F)NC(=O)[C@@H](NC(=O)CNC(=O)[C@H](CCC(=O)O)NC(=O)C(C)(C)NC(=O)[C@@H](N)Cc1ccc(O)cc1)[C@@H](C)O)[C@@H](C)O)[C@@H](C)CC)[C@@H](C)CC)C(=O)N[C@@H](CCC(=O)O)C(=O)NCC(=O)NCC(=O)N[C@@H](CCCCNC(=O)COCCOCCNC(=O)COCCOCCNC(=O)[C@@H](N)CCCCNC(=O)CCCCCCCCCCCCC(=O)O)C(=O)N[C@@H](CO)C(=O)N[C@@H](CO)C(=O)NCC(=O)N[C@@H](C)C(=O)N1CCC[C@H]1C(=O)N1CCC[C@H]1C(=O)N1CCC[C@H]1C(=O)N[C@@H](CO)C(N)=O [Example 33]
Ki [1]: 1.34 nM | EC50 [2, 5]: 0.0941 nM | Emax [2, 6]: 92 ± 1.02% | Emax [2, 7]: 97.6 ± 2.45% | EC50 [3, 5]: > 9950 nM | EC50 [3, 8]: > 9950 nM | EC50 [4, 5]: 4.35 nM
